# Measured values reported in patent publication US6281250A, “Retinyl ethers, derivatives and analogues and inhibition of breast carcinogenesis” (Southern Research Institute, priority 1999, dated 2001).
# Assays:
# [1] = test system: TPA-induced ornithine decarboxylase (ODC); test: Inhibition of TPA-induced ornithine decarboxylase (ODC) in mouse skin; format: in vivo
# Text: Earlier, several alkyl, alkenyl, or alkynyl retinyl ethers had been assayed for inhibition of TPA-induced ornithine decarboxylase (ODC) in mouse skin and for the suppression of DMBA-initiated and TPA-promoted mouse-skin papillomas (Shealy et al., 1997). In comparison with control groups, these retinyl ethers were ineffective. Only a few representatives of the benzyl ethers were selected for tests in these assays. […] Because of these and the earlier results (Shealy et al., 1997), testing of retinyl benzyl ethers in the ODC and papilloma assays was discontinued.
# [2] = test system: NADPH-requiring enzymes in rat liver microsomes; test: Conversion of retinyl ethers to retinol by rat liver microsomal enzymes; format: in vitro ADME; details: in vitro
# Method: Because it was postulated, as stated above, that new retinyl ethers might not be converted by mircrosomal oxidases to retinol, RTMBE and 3a-i were tested in vitro in the same way.
# [3] = test system: MNU-induced mammary cancer; test: Short-term (90-day) assay against MNU-induced mammary cancer in rats (Expts. 2 and 3); format: in vivo, rat (female Sprague-Dawley); details: 90 days
# Method: Retinoid diet mixtures were stored at 4° C. […] The animals were palpated for mammary tumors 2×/week. […] Also, five rats/group had complete necropsies performed.
# The 2,5-dimethoxybenzyl (3b) and 4-methoxybenzyl (3e) ethers were tested in the same way in a 90-day study. […] The 2,5-dimethybenzyl (3c) and the 2,3-dimethoxybenzyl (3h) ethers, together with RTMBE for comparison, were likewise assayed according to the same methodology. Prior to the beginning of this study, specimens of the retinoid-diet mixtures were placed under the conditions that were employed during the storage and feeding of RTMBE, 3c, and 3h. The specimens were extracted with butanol, and the extracts were analyzed by HPLC. […] Testing of 3c and 3h was discontinued, but the RTMBE study was continued until the duration of the study was 180 days (Table 6). The results were similar to those of Experiment 1 (Table 3). The averages of the number of tumors per rat were reduced by 32-35%; in addition, the averages of the tumor weights per rat was 56-70% lower than the average tumor burden of the control group.
# and was continued until the studies of 3b, 3c, 3e, and 3h were terminated
# 90 days after administration of MNU. The RTMBE experiment was continued
# until 180 days after MNU administration (Table VI).
# kilogram of Teklad diet.
# [4] = test system: serum retinol-binding protein (RBP); test: Binding to serum retinol-binding protein (RBP): inhibition of [3H]retinol binding; details: % of that of retinol
# [5] = Shealy et al., 1997; cited from earlier work
# [6] = target: T1, cellular retinol-binding protein (CRBP) (Rattus norvegicus, UniProt P02696); test: Binding to cellular retinol-binding protein (CRBP): inhibition of [3H]retinol binding, sucrose density-gradient sedimentation
# T1 construct: portions of rat testes cytosol (1 mg protein) were incubated; from tissue; host or cells: rat testes cytosol
# T1 sequence (P02696 1-135): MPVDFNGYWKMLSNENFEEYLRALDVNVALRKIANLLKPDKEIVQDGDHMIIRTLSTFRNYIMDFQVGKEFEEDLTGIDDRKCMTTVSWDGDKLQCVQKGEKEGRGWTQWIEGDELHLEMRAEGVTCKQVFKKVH
structure (smiles),measurement,setting,value
"COc1cc(COC/C=C(C)/C=C/C=C(C)/C=C/C2=C(C)CCCC2(C)C)cc(OC)c1OC [Compound 2, Retinyl 3,4,5-Trimethoxybenzyl Ether]",activity in ODC assay,[1],not active in the ODC assay
same,conversion to retinol,[2],not detectable
same,reduction of the number of tumors per rat,[3]; at 1 mmol/kg,64%
same,"Tumors, % of Control Gp.","[3]; Expt. 3, 0.5 mmol/kg diet",78%
same,"Tumors, Avg. No. per Rat","[3]; Expt. 3, 0.5 mmol/kg diet",1.5
same,"Tumors, % of Control Gp.","[3]; Expt. 3, 1 mmol/kg diet",36%
same,"Tumors, Avg. No. per Rat","[3]; Expt. 3, 1 mmol/kg diet",0.7
same,"Tumors, % of Control Gp.","[3]; Expt. 3, 2 mmol/kg diet",36%
same,"Tumors, Avg. No. per Rat","[3]; Expt. 3, 2 mmol/kg diet",0.7
same,"inhibition of [3H] retinol-binding (RBP), relative to that of retinol",[4],70%
same,recovery from the feed of rats,[5],recoverable from the feed of rats
same,"Binding to CRBP, rating",[6]; 150-fold molar excess,strong or moderate binding
same,"binding to CRBP, in words",[6]; 150-fold molar excess,bind to CRBP
same,Percent Inhibition of [3H] Retinol Binding (CRBP Assay),"[6]; 150-fold molar excess of unlabelled test retinoid, rat testes cytosol",66 ± 12%
